Results on two compounds are retold here after US12157741B2, “Macrocyclic inhibitors of DYRK1A” (DANA-FARBER CANCER INSTITUTE, INC., priority 2018, dated 2024).

Where two headings read alike, the source gives them in different places.

Experiment [1] deals with various enzymes (Homo sapiens, UniProt O14578). Conditions: CIT; 1 uM.
Experimental: (§1) Ambit profiling from Eurofins (formerly Discoverx) was conducted in accordance with the manufacturer's instructions.
Experiment [2] concerns the target T1, various enzymes (Homo sapiens, UniProt O43283).
T1 sequence (O43283 1-966): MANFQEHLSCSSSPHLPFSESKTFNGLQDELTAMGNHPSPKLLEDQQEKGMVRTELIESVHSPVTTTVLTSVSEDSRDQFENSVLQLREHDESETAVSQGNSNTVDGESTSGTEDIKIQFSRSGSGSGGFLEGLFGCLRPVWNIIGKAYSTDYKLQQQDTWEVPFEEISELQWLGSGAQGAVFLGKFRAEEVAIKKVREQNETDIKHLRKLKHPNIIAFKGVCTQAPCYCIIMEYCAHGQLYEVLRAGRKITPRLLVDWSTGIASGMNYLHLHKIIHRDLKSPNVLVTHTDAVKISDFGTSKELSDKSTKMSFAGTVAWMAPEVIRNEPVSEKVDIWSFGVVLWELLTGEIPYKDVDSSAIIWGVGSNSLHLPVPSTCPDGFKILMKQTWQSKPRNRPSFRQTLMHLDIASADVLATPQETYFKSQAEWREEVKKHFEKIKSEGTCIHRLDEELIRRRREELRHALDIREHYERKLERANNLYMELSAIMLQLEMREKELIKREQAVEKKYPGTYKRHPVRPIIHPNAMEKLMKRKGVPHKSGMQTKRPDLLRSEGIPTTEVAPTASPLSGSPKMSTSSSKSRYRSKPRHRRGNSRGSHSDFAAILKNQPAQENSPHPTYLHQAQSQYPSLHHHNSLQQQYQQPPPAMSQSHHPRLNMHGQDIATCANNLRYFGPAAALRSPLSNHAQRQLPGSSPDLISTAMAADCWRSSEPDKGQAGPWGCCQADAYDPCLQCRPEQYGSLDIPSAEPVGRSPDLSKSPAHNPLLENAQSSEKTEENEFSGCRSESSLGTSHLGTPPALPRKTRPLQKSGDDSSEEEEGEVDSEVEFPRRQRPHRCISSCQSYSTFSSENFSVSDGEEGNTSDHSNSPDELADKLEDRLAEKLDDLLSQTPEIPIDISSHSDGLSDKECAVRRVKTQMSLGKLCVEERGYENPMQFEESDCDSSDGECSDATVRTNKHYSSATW
The settings on record: LZK; 1 uM.
Experimental: as §1

Experiment [3] has as its target various enzymes (Homo sapiens, UniProt O60331). The settings on record: PIP5K1C; 1 uM.
Experimental: as §1
Experiment [4] addresses various enzymes (Homo sapiens, UniProt P00533, L861Q).
Experimental: as §1
Experiment [5] addresses various enzymes (Homo sapiens, UniProt P41240). Conditions: CSK; 1 uM.
Experimental: as §1
Experiment [6] deals with various enzymes (Homo sapiens, UniProt P57059). Conditions: SIK; 1 uM.
Chain of various enzymes (Homo sapiens, UniProt P57059) (P57059 whole entry): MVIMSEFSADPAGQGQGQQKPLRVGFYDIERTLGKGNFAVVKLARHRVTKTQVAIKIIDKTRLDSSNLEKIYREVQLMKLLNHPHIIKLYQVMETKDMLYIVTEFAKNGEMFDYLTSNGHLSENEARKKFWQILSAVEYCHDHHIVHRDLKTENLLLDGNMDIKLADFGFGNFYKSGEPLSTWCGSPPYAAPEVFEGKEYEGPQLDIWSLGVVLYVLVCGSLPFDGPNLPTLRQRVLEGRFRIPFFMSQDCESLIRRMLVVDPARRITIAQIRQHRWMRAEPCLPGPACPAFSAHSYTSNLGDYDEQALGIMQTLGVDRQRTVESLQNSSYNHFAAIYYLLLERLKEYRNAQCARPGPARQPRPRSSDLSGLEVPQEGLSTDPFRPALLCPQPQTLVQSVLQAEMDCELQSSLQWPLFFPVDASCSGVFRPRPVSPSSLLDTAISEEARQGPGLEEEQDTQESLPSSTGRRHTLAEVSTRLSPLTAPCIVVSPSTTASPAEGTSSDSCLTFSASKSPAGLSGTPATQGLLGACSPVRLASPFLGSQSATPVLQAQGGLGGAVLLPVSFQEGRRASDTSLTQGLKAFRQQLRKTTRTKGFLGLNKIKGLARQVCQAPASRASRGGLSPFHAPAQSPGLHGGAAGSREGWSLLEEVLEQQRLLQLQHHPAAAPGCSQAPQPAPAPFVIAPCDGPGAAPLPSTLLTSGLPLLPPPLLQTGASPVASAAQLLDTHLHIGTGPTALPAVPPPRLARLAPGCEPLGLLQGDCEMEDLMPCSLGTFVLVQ
Experimental: as §1
Experiment [7] concerns the target various enzymes (Homo sapiens, UniProt Q06187). Conditions: BTK; 1 uM.
Experimental: as §1
Experiment [8] deals with various enzymes (Homo sapiens, UniProt Q14004). Conditions: CDC2L5; 1 uM.
Chain of various enzymes (Homo sapiens, UniProt Q14004) (Q14004 whole entry): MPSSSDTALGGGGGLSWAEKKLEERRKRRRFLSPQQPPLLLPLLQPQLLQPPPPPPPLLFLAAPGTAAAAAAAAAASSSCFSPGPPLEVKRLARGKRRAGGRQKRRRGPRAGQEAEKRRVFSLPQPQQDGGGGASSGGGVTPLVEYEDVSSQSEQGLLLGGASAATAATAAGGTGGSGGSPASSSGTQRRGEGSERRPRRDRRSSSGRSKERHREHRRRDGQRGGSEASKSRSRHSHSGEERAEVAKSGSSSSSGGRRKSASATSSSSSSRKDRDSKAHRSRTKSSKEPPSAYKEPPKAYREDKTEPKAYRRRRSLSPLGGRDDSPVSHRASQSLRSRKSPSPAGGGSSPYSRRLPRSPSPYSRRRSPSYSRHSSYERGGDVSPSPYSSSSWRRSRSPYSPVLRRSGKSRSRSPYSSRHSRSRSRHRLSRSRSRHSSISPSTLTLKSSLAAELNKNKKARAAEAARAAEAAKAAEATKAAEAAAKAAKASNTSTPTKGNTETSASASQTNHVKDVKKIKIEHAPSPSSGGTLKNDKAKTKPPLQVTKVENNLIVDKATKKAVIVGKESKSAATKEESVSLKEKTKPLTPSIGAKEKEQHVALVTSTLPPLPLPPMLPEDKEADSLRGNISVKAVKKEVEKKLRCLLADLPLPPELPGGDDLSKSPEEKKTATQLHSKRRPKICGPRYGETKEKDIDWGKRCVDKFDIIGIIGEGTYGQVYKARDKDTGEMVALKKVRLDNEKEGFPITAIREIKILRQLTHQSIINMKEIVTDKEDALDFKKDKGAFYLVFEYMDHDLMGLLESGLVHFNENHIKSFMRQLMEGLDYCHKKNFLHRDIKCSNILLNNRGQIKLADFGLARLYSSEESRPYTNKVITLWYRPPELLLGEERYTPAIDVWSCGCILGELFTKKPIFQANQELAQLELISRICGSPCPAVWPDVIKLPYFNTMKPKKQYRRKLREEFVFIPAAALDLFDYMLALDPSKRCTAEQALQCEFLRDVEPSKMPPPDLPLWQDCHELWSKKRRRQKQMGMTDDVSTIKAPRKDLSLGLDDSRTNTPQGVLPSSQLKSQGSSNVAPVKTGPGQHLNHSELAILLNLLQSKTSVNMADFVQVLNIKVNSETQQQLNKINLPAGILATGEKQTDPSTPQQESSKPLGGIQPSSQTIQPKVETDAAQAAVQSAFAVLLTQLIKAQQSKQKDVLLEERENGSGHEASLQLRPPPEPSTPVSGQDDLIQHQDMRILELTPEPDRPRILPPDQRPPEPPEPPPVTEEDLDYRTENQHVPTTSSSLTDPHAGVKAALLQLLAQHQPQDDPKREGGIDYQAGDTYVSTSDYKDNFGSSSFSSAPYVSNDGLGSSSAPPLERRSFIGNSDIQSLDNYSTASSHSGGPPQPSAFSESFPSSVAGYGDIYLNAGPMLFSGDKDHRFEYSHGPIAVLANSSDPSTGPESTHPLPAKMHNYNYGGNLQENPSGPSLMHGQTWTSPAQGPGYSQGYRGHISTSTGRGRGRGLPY
Experimental: as §1
For experiment [9], the target named is T2, various enzymes (Homo sapiens, UniProt Q9H093).
T2 sequence (Q9H093 1-628): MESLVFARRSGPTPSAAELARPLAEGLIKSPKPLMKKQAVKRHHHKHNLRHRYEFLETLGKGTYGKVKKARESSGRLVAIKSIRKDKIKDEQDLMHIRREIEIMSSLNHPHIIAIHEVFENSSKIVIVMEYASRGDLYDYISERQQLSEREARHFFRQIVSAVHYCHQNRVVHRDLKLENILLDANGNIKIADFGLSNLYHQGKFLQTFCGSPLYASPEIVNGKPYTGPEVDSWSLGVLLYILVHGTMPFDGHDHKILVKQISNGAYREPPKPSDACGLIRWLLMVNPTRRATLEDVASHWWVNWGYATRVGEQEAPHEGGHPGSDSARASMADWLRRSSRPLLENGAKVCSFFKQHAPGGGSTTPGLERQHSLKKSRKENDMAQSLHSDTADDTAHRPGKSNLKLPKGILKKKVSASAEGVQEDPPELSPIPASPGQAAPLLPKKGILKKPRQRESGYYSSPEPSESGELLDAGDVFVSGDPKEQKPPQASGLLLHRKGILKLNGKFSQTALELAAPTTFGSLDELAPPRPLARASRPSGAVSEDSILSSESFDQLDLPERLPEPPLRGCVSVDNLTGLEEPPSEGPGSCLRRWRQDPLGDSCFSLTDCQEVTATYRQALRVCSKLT
The settings on record: SNARK; 1 uM.
Experimental: as §1

The target in experiment [10] is various enzymes (Homo sapiens, UniProt Q9Y6M4). The settings on record: CSNK1G3; 1 uM.
Chain of various enzymes (Homo sapiens, UniProt Q9Y6M4) (Q9Y6M4 whole entry): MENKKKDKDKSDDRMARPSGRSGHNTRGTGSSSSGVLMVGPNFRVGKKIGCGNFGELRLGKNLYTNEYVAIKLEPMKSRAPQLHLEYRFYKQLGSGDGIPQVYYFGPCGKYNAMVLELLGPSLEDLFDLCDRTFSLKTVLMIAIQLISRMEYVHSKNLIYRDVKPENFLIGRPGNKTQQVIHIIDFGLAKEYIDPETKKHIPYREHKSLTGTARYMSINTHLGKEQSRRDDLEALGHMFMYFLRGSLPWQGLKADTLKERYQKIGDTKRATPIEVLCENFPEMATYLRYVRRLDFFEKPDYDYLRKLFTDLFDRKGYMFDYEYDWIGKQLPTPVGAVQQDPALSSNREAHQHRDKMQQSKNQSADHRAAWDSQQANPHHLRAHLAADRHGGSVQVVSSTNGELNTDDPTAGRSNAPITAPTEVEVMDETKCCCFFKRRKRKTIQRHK
Experimental: as §1

Chain of various enzymes (Homo sapiens, UniProt O60331) (O60331 whole entry): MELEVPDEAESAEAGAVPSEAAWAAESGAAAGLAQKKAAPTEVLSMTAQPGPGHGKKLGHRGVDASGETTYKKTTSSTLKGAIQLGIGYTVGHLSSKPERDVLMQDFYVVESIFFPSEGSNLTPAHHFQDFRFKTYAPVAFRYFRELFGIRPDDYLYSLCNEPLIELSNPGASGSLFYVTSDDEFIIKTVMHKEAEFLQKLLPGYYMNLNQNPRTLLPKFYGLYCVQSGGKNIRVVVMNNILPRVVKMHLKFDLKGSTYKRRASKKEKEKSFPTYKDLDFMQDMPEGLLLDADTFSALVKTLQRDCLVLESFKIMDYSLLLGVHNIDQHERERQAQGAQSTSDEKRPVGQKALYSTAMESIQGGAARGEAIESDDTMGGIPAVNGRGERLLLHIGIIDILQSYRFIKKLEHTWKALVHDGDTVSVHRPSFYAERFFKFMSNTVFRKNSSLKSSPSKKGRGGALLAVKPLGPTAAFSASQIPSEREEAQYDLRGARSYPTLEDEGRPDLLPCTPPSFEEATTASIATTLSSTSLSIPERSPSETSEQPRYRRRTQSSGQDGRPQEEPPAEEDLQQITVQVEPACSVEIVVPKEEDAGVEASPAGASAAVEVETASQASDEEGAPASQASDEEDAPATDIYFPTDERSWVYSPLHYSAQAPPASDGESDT
Chain of various enzymes (Homo sapiens, UniProt Q06187) (Q06187 whole entry): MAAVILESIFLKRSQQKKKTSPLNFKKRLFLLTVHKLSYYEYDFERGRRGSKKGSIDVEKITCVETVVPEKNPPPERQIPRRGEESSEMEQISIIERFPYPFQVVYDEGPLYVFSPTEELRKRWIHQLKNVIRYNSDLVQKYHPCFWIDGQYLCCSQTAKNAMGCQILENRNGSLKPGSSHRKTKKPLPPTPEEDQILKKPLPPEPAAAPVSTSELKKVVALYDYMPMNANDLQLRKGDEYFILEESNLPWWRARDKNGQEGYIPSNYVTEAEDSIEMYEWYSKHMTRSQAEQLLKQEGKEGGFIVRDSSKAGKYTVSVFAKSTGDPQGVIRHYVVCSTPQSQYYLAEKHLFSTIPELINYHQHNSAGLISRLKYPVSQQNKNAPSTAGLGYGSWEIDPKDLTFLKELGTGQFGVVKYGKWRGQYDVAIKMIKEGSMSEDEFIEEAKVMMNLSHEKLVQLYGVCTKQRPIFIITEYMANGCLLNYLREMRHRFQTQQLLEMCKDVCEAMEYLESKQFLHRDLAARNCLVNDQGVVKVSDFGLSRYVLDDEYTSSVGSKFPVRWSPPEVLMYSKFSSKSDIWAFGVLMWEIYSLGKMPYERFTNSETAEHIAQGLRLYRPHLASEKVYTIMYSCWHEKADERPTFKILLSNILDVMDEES
Chain of various enzymes (Homo sapiens, UniProt P41240) (P41240 whole entry): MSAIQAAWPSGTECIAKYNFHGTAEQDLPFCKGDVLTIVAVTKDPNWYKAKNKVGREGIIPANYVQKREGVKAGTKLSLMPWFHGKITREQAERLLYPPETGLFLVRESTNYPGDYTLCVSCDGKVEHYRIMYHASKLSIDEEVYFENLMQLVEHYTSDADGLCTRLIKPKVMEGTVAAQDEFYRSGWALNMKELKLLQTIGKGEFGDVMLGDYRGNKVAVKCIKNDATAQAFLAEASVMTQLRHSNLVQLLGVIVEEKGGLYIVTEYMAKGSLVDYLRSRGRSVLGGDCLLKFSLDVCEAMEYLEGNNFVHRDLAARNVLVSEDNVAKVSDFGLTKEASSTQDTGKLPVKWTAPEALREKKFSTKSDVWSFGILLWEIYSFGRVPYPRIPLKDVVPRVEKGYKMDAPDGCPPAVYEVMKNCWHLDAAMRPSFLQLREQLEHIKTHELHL

As to `CN1Cc2nn(C)cc2-c2cnc3[nH]cc(c3c2)-c2cnn(c2)CCCC1=O` [Compound 41, (Z)-31,5-dimethyl-11H,21H,31H-5-aza-2(3,5)-pyrrolo[2,3-b]pyridina-1(4,1),3(4,3)-dipyrazolacyclononaphan-6-one], the Ambit profiling is listed as 99 in [1]; 11 in experiment [2]; 20 in experiment [3]; 100 in experiment [4] (EGFR(L861Q), 1 uM); 63 in experiment [5]; 84 in experiment [6]. Further, the Ambit profiling in [7] worked out at 61; in experiment [8] it was 100; in experiment [9], 4.3; in experiment [10], 100.

In the case of `CN1Cc2nn(C)c(C#N)c2-c2cnc3[nH]cc(c3c2)-c2cn(nc2C(F)(F)F)CCCC1=O` [Compound 48, (Z)-31,5-dimethyl-6-oxo-13-(trifluoromethyl)-11H,21H,31H-5-aza-2(3,5)-pyrrolo[2,3-b]pyridina-1(4,1),3(4,3)-dipyrazolacyclononaphane-35-carbonitrile], the Ambit profiling in experiment [1] turned out to be 74; in experiment [2], 100; in experiment [3], 38; in experiment [4], 59; in experiment [5], 95; in [6] it was 59. The Ambit profiling in [7] was 97; in experiment [8], 87; in [9], 100; in [10], 98.
